Source: PMC3415572 (Journal of medicinal chemistry, 2012)
“Also recorded” adds a separate entry of the source. Where two headings read alike, the source gives them in different places.

Legend:
D2R = D2R (Homo sapiens, UniProt P14416); experiment: BRET1-based GoA activation assay, D2R; type: cell-based
D3R = D3R (Homo sapiens, UniProt P35462); experiment: BRET1-based GoA activation assay, D3R; type: cell-based; conditions: for efficacy type at D3R (in words): GoA BRET; for efficacy type at D3R (in words) / Emax in the Go BRET assay, D3R: HEK293T; for Emax in the Go BRET assay, D3R: dose-response 100 pM to 100 µM
Sequence of D3R (P35462 whole entry): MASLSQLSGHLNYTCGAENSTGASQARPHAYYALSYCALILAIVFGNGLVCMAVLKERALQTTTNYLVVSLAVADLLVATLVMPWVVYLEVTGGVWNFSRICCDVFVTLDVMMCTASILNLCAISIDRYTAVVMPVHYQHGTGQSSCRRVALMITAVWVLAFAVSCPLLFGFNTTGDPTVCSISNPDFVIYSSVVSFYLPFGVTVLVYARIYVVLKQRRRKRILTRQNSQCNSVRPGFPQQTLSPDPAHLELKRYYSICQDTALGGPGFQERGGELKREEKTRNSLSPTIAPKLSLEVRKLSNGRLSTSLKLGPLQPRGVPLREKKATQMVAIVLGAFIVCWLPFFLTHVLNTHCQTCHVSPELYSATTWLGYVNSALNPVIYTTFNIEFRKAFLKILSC

[1] = HEK293T, dose-response 100 pM to 100 µM

Sequence of D2R (P14416 1-414 isoform P14416-2): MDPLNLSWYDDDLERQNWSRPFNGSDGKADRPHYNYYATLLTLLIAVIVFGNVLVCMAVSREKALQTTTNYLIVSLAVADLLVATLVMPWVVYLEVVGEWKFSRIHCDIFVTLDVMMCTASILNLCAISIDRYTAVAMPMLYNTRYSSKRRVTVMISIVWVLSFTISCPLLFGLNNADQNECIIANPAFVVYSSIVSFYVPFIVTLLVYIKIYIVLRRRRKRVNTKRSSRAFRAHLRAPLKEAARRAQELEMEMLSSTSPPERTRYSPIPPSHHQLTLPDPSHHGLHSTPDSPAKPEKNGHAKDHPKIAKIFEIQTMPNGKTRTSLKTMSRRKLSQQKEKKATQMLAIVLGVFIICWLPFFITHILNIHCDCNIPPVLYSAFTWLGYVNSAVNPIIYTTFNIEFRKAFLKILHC

| Structure (SMILES) | efficacy type at D3R (in words) (D3R) | Emax in the Go BRET assay, D3R (D3R) | also measured |
| --- | --- | --- | --- |
| COc1ccccc1N1CCN(CCCCNC(=O)c2cc3ccccc3[nH]2)CC1 [Compound 5] | weak partial agonism | 8.38 % of the Emax of dopamine | efficacy type at D2R (in words) (D2R; GoA BRET, HEK293T): weak partial agonism; Emax in the Go BRET assay, D2R (D2R; [1]): 13.65 % of the Emax of dopamine |
| CCCN1CCN(c2cccc(Cl)c2Cl)CC1 [Compound 13, 1-(2,3-Dichlorophenyl)-4-propylpiperazine] |  | 17.53 % of the Emax of dopamine |  |
| NCCc1ccc(O)c(O)c1 [dopamine, reference compound] |  |  | efficacy type at D2R (in words) (D2R): full agonists |
| Clc1cccc(N2CCNCC2)c1Cl [Compound 8, 2,3-diCl-4-phenylpiperazine] | substantial partial agonism | 57.27 % of the Emax of dopamine | efficacy type at D2R (in words) (D2R; GoA BRET, HEK293T): substantial partial agonism; Emax in the Go BRET assay, D2R (D2R; [1]): 40.03 % of the Emax of dopamine |
| CCc1cc(Cl)c(OC)c(C(=O)NC[C@@H]2CCCN2CC)c1O [Compound 3, eticlopride, reference compound] | inverse agonist |  |  |
| COc1ccccc1N1CCNCC1 [Compound 9, 2-OCH3-4-phenylpiperazine] | only minimal efficacy | 6.27 % of the Emax of dopamine | Emax in the Go BRET assay, D2R (D2R): 14.02 % of the Emax of dopamine; efficacy type at D2R (in words) (D2R): only minimal efficacy |
| CN1CCN(c2cccc(Cl)c2Cl)CC1 [Compound 10, 1-(2,3-Dichlorophenyl)-4-methylpiperazine] |  | 37.53 % of the Emax of dopamine |  |
| COc1ccccc1N1CCN(C)CC1 [Compound 11, 1-(2-Methoxyphenyl)-4-methylpiperazine] |  | 7.11 % of the Emax of dopamine |  |
| O=C(NCCCCN1CCN(c2cccc(Cl)c2Cl)CC1)c1cc2ccccc2[nH]1 [Compound 4, N-(4-(4-(2,3-dichlorophenyl)piperazin-1-yl)butyl)-1H-indole-2-carboxamide] | weak partial agonism | 16.00 % of the Emax of dopamine | efficacy type at D2R (in words) (D2R; GoA BRET, HEK293T): weak partial agonism |
| CCCCNC(=O)c1cc2ccccc2[nH]1 [Compound 18, N-Butyl-1H-indole-2-carboxamide] | no activity; also recorded: failed to activate | −0.65 % of the Emax of dopamine |  |
| CCCCN1CCN(c2cccc(Cl)c2Cl)CC1 [Compound 14, 1-Butyl-4-(2,3-dichlorophenyl)piperazine] |  | 14.13 % of the Emax of dopamine |  |
| CCN1CCCC1CNC(=O)c1cc(S(N)(=O)=O)ccc1OC (stereo not shown) [Compound 7, sulpiride, reference compound] | inverse agonist | −6.83 % of the Emax of dopamine | efficacy type at D2R (in words) (D2R; GoA BRET, HEK293T): inverse agonist; Emax in the Go BRET assay, D2R (D2R; [1]): −6.26 % of the Emax of dopamine; shift of dopamine dose-response curve at D2R (D2R; sulpiride 100 nM): dramatically right-shifted the potency of dopamine; shift of dopamine dose-response curve at D3R (D3R; sulpiride 100 nM): dramatically right-shifted the potency of dopamine |
| CCC(=O)NCCCCN1CCN(c2ccccc2OC)CC1 [Compound 17] |  | 7.37 % of the Emax of dopamine |  |
| CCC(=O)NCCCCN1CCN(c2cccc(Cl)c2Cl)CC1 [Compound 16] |  | 22.32 % of the Emax of dopamine |  |
| O=C(NCC[C@@H](O)CN1CCN(c2cccc(Cl)c2Cl)CC1)c1cc2ccccc2[nH]1 [Compound 2] | weak partial agonism |  |  |
| OCCN1CCN(c2cccc(Cl)c2Cl)CC1 [Compound 12, 2-(4-(2,3-Dichlorophenyl)piperazin-1-yl)ethanol] |  | 21.08 % of the Emax of dopamine |  |
| CCCCN1CCN(c2ccccc2OC)CC1 [Compound 15, 1-Butyl-4-(2-methoxyphenyl)piperazine] |  | 9.40 % of the Emax of dopamine |  |
